Read-outs that look alike come from different tables or passages of the source.
Experiments:
[1] = tested on: young rats; details: 10 mg L-thyroxine/kg diet; 400 mg magnesium/kg; cited from earlier work
[2] = tested on: Hy-Line W-36 White Leghorn hens
Protocol: Experiment 1. […] While acknowledging that injecting individual hens is commercially impractical (Webster, 2003), nevertheless an initial study was needed to establish the efficacy of T4 when it is delivered directly into the hens in precisely measured doses. The photoperiod was 17 hours of light per day (0330 hours to 2030 hours).

[3] = tested on: broiler chickens; details: 1 mg/kg of diet, 0 to 28 days of age, cited from earlier work
[4] = tested on: growing cockerel and pullet chickens; details: 10 mg/kg dietary thyroid hormone; cited from earlier work
[5] = tested on: fast-growing broiler chickens; details: low ambient temperature and pelleted feed; untreated 21.5%; cited from earlier work
[6] = tested on: 66-week-old caged laying hens; details: cited from earlier work
[7] = tested on: Hy-Line W-36 White Leghorn hens; details: for Ovary Weight per hen / Oviduct Weight per hen: day 34
Excerpt: Experiment 3. […] The photoperiod serves as the primary environmental signal that regulates reproductive function in many avian species. Increasing the photoperiod promotes maturation of the gonads and reproductive tract, whereas reducing the photoperiod causes the gonads and reproductive tract to regress and molting to occur.

[8] = tested on: laying turkeys; details: 2 mg L-thyroxine/hen/day i.m.; cited from earlier work

N[C@@H](Cc1cc(I)c(Oc2cc(I)c(O)c(I)c2)c(I)c1)C(=O)O [L-thyroxine, 3,5,3′,5′-tetraiodo-L-thyronine]
Weight gain in 16 days [1]: 60 g
Egg production ([2]; 250 μg T4 per kg body weight for 12 consecutive days): did not reduce egg production significantly
Onset of molt in all cages after the start of T4 injection ([2]; 500 μg T4 Group): 11 days
Day of T4 injection by which egg production ceased entirely ([2]; 1,000 μg T4 Group): ≤ 8 days
Onset of molt in all cages after the start of T4 injection ([2]; 1,000 μg T4 Group): 9 days
Mortality ([2]; 1,000 μg T4 Group, 2 of 8 hens, 9th and 10th day after start of injection): 25%
Time to complete cessation of egg production ([2]; 2,000 μg T4 per kg body weight for 3 consecutive days): ≤ 6 days
Mortality ([2]; 4,000 μg T4 Group, 1 of 4 hens, 8th day after start of injection): 25%
Time to complete cessation of egg production ([2]; 4,000 μg T4 per kg body weight for 3 consecutive days): ≤ 4 days
End of Injections Body Weight ([2]; 250 mcg/kg body wt i.m. 12 d): 1300 g
Initial Body Weight ([2]; 250 mcg/kg body wt i.m. 12 d): 1495 g
Hen-day egg production ([2]; 250 mcg/kg body wt i.m. 12 d from day 15, day 14): 93.8%
Hen-day egg production ([2]; 250 mcg/kg body wt i.m. 12 d from day 15, day 16): 87.5%
Hen-day egg production ([2]; 250 mcg/kg body wt i.m. 12 d from day 15, day 18): 68.8%
Hen-day egg production ([2]; 250 mcg/kg body wt i.m. 12 d from day 15, day 20): 56.3%
Hen-day egg production ([2]; 250 mcg/kg body wt i.m. 12 d from day 15, day 22): 25.0%
Hen-day egg production ([2]; 250 mcg/kg body wt i.m. 12 d from day 15, day 24): 31.3%
Hen-day egg production ([2]; 250 mcg/kg body wt i.m. 12 d from day 15, day 26): 37.5%
Hen-day egg production ([2]; 250 mcg/kg body wt i.m. 12 d from day 15, day 28): 31.3%
Hen-day egg production ([2]; 250 mcg/kg body wt i.m. 12 d from day 15, day 30): 37.5%
Time after start of injecting until egg production significantly reduced ([2]; 500 and 1,000 μg T4 Groups): 4 days
End of Injections Body Weight ([2]; 500 mcg/kg body wt i.m. 8 d): 1299 g
Initial Body Weight ([2]; 500 mcg/kg body wt i.m. 8 d): 1472 g
Hen-day egg production ([2]; 500 mcg/kg body wt i.m. 8 d from day 15, day 14): 87.5%
Hen-day egg production ([2]; 500 mcg/kg body wt i.m. 8 d from day 15, day 16): 93.8%
Hen-day egg production ([2]; 500 mcg/kg body wt i.m. 8 d from day 15, day 18): 31.3%
Hen-day egg production ([2]; 500 mcg/kg body wt i.m. 8 d from day 15, day 20): 31.3%
Hen-day egg production ([2]; 500 mcg/kg body wt i.m. 8 d from day 15, day 22): 6.3%
Hen-day egg production ([2]; 500 mcg/kg body wt i.m. 8 d from day 15, day 24): 6.3%
Hen-day egg production ([2]; 500 mcg/kg body wt i.m. 8 d from day 15, day 26): 6.3%
Hen-day egg production ([2]; 500 mcg/kg body wt i.m. 8 d from day 15, day 28): 6.3%
Hen-day egg production ([2]; 500 mcg/kg body wt i.m. 8 d from day 15, day 30): 25.0%
Size of regressed reproductive tracts at necropsy ([2]; 1,000 and 4,000 μg T4 Groups): ≤ 50 % normal size
End of Injections Body Weight ([2]; 1,000 mcg/kg body wt i.m. 8 d): 1167 g
Initial Body Weight ([2]; 1,000 mcg/kg body wt i.m. 8 d): 1513 g
Hen-day egg production ([2]; 1,000 mcg/kg body wt i.m. 8 d from day 15, day 14): 81.3%
Hen-day egg production ([2]; 1,000 mcg/kg body wt i.m. 8 d from day 15, day 16): 68.8%
Hen-day egg production ([2]; 1,000 mcg/kg body wt i.m. 8 d from day 15, day 18): 31.3%
Hen-day egg production ([2]; 1,000 mcg/kg body wt i.m. 8 d from day 15, day 20): 12.5%
Hen-day egg production ([2]; 1,000 mcg/kg body wt i.m. 8 d from day 15, day 22): 0.0%
Hen-day egg production ([2]; 1,000 mcg/kg body wt i.m. 8 d from day 15, day 24): 0.0%
Hen-day egg production ([2]; 1,000 mcg/kg body wt i.m. 8 d from day 15, day 26): 0.0%
Hen-day egg production ([2]; 1,000 mcg/kg body wt i.m. 8 d from day 15, day 28): 0.0%
Hen-day egg production ([2]; 1,000 mcg/kg body wt i.m. 8 d from day 15, day 30): 0.0%
Onset of molt in all cages after the start of injection ([2]; 2,000 and 4,000 μg T4 Groups): 9 days
End of Injections Body Weight ([2]; 2,000 mcg/kg body wt i.m. 3 d): 1234 g
Initial Body Weight ([2]; 2,000 mcg/kg body wt i.m. 3 d): 1510 g
Hen-day egg production ([2]; 2,000 mcg/kg body wt i.m. 3 d from day 15, day 14): 62.5%
Hen-day egg production ([2]; 2,000 mcg/kg body wt i.m. 3 d from day 15, day 16): 87.5%
Hen-day egg production ([2]; 2,000 mcg/kg body wt i.m. 3 d from day 15, day 18): 87.5%
Hen-day egg production ([2]; 2,000 mcg/kg body wt i.m. 3 d from day 15, day 20): 75.0%
Hen-day egg production ([2]; 2,000 mcg/kg body wt i.m. 3 d from day 15, day 22): 50.0%
Hen-day egg production ([2]; 2,000 mcg/kg body wt i.m. 3 d from day 15, day 24): 12.5%
Hen-day egg production ([2]; 2,000 mcg/kg body wt i.m. 3 d from day 15, day 26): 0.0%
Hen-day egg production ([2]; 2,000 mcg/kg body wt i.m. 3 d from day 15, day 28): 0.0%
Hen-day egg production ([2]; 2,000 mcg/kg body wt i.m. 3 d from day 15, day 30): 0.0%
End of Injections Body Weight ([2]; 4,000 mcg/kg body wt i.m. 3 d): 1165 g
Initial Body Weight ([2]; 4,000 mcg/kg body wt i.m. 3 d): 1387 g
Hen-day egg production ([2]; 4,000 mcg/kg body wt i.m. 3 d from day 15, day 14): 62.5%
Hen-day egg production ([2]; 4,000 mcg/kg body wt i.m. 3 d from day 15, day 16): 87.5%
Hen-day egg production ([2]; 4,000 mcg/kg body wt i.m. 3 d from day 15, day 18): 100.0%
Hen-day egg production ([2]; 4,000 mcg/kg body wt i.m. 3 d from day 15, day 20): 87.5%
Hen-day egg production ([2]; 4,000 mcg/kg body wt i.m. 3 d from day 15, day 22): 25.0%
Hen-day egg production ([2]; 4,000 mcg/kg body wt i.m. 3 d from day 15, day 24): 0.0%
Hen-day egg production ([2]; 4,000 mcg/kg body wt i.m. 3 d from day 15, day 26): 0.0%
Hen-day egg production ([2]; 4,000 mcg/kg body wt i.m. 3 d from day 15, day 28): 0.0%
Hen-day egg production ([2]; 4,000 mcg/kg body wt i.m. 3 d from day 15, day 30): 0.0%
Serum thyroxine level ([3]; first experiment (control 41.1)): 88.7 ng/mL
Serum thyroxine level ([3]; second experiment (control 21.1)): 69.3 ng/mL
Reduction in body weight gain compared to controls [4]: 28.18%
Ascites [5]: 7%
Days to target body weight (30% loss) ([6]; 1-day fast or no fast followed by corn diet with or without thyroxine): 28 days
Days to target body weight (30% loss) ([6]; 1-day feed withdrawal, then grape pomace diet plus 10 mg thyroxine/kg): 16 days
Egg production from 66 to 98 weeks ([6]; grape pomace diet plus thyroxine): 64.7%
Hens molted ([7]; 20 mg T4/kg groups, either chamber): None of the hens
Time to significantly reduced egg production ([7]; 20 mg T4/kg, 17 hr light): ≤ 8 days
Body weight (BW) ([7]; 20 mg/kg of feed 12 d from day 13, 8 hr light, Day 12 (pre-molt)): 1492 g
Body weight change (% BWC) ([7]; 20 mg/kg of feed 12 d from day 13, 8 hr light, Day 22): −12.8%
Body weight (BW) ([7]; 20 mg/kg of feed 12 d from day 13, 8 hr light, Day 22 (end of molt)): 1301 g
Body weight change (% BWC) ([7]; 20 mg/kg of feed 12 d from day 13, 8 hr light, Day 34): −10.7%
Body weight (BW) ([7]; 20 mg/kg of feed 12 d from day 13, 8 hr light, Day 34 (final)): 1332 g
Body weight (BW) ([7]; 20 mg/kg of feed 12 d from day 13, 17 hr light, Day 12 (pre-molt)): 1572 g
Body weight change (% BWC) ([7]; 20 mg/kg of feed 12 d from day 13, 17 hr light, Day 22): −13.3%
Body weight (BW) ([7]; 20 mg/kg of feed 12 d from day 13, 17 hr light, Day 22 (end of molt)): 1363 g
Body weight change (% BWC) ([7]; 20 mg/kg of feed 12 d from day 13, 17 hr light, Day 34): −7.6%
Body weight (BW) ([7]; 20 mg/kg of feed 12 d from day 13, 17 hr light, Day 34 (final)): 1453 g
Ovary Weight per hen ([7]; 20 mg/kg of feed, 8 hr light): 7.91 g
Oviduct Weight per hen ([7]; 20 mg/kg of feed, 8 hr light): 18.64 g
Ovary Weight per hen ([7]; 20 mg/kg of feed, 17 hr light): 31.41 g
Oviduct Weight per hen ([7]; 20 mg/kg of feed, 17 hr light): 43.81 g
Hens molted fully ([7]; 40 mg T4/kg, 8 hr light, 7/12): 58%
Hens molted fully ([7]; 40 mg T4/kg, 17 hr light): 100%
Time to significantly reduced egg production ([7]; 40 mg T4/kg, 17 hr light): ≤ 6 days
Body weight (BW) ([7]; 40 mg/kg of feed 12 d from day 13, 8 hr light, Day 12 (pre-molt)): 1488 g
Body weight change (% BWC) ([7]; 40 mg/kg of feed 12 d from day 13, 8 hr light, Day 22): −17.9%
Body weight (BW) ([7]; 40 mg/kg of feed 12 d from day 13, 8 hr light, Day 22 (end of molt)): 1222 g
Body weight change (% BWC) ([7]; 40 mg/kg of feed 12 d from day 13, 8 hr light, Day 34): −12.6%
Body weight (BW) ([7]; 40 mg/kg of feed 12 d from day 13, 8 hr light, Day 34 (final)): 1300 g
Body weight (BW) ([7]; 40 mg/kg of feed 12 d from day 13, 17 hr light, Day 12 (pre-molt)): 1436 g
Body weight change (% BWC) ([7]; 40 mg/kg of feed 12 d from day 13, 17 hr light, Day 22): −18.0%
Body weight (BW) ([7]; 40 mg/kg of feed 12 d from day 13, 17 hr light, Day 22 (end of molt)): 1178 g
Body weight change (% BWC) ([7]; 40 mg/kg of feed 12 d from day 13, 17 hr light, Day 34): −14.8%
Body weight (BW) ([7]; 40 mg/kg of feed 12 d from day 13, 17 hr light, Day 34 (final)): 1224 g
Ovary Weight per hen ([7]; 40 mg/kg of feed, 8 hr light): 9.32 g
Oviduct Weight per hen ([7]; 40 mg/kg of feed, 8 hr light): 14.25 g
Ovary Weight per hen ([7]; 40 mg/kg of feed, 17 hr light): 3.82 g
Oviduct Weight per hen ([7]; 40 mg/kg of feed, 17 hr light): 8.03 g
Mortality ([7]; 20 and 40 mg T4/kg, 12 days): No mortality occurred
Time to significantly reduced egg production ([7]; 20 and 40 mg T4/kg, 8 hr light): ≤ 4 days
Time out of egg production after treatment [8]: 4 weeks

Reference: US20060008512A1, “Composition and methods for improved animal performance” (priority 2004, published 2006)
